Ends that are not written are not given here. C(BODIPY) = not defined here
Test system: NHE3
Type: cell-based, human
Conditions: for activity: read-out: Stimulation of NHE3 activity (%)

| Substance | EC50 [µM] | activity [%] | Stimulation of NHE3 activity (%) |
| --- | --- | --- | --- |
| N3SP-1Δ5: N3SP-1 with truncation of 5 N-terminal aa (TPRPSTVEASVSYLLRESASAVCLDMQSLEQRR-{C(BODIPY)}; reading uncertain; UniProt P26432 573-605, looked up, fragment) | 0.154 | 39 |  |
| N3SP-1Δ6: N3SP-1 with truncation of 6 N-terminal aa (PRPSTVEASVSYLLRESASAVCLDMQSLEQRR-{C(BODIPY)}; reading uncertain; UniProt P26432 574-605, looked up, fragment) | 0.151 | 40 |  |
| N3SP-1Δ8: N3SP-1 with truncation of 8 N-terminal aa (PSTVEASVSYLLRESASAVCLDMQSLEQRR-{C(BODIPY)}; reading uncertain; UniProt P26432 576-605, looked up, fragment) |  | 9 |  |
| N3SP-1Δ9: N3SP-1 with truncation of 9 N-terminal aa (STVEASVSYLLRESASAVCLDMQSLEQRR-{C(BODIPY)}; reading uncertain; UniProt P26432 577-605, looked up, fragment) |  |  | No |
| N3SP-1Δ18: N3SP-1 with truncation of 18 N-terminal aa (LLRESASAVCLDMQSLEQRR-{C(BODIPY)}; reading uncertain; UniProt P26432 586-605, looked up, fragment) |  |  | No |
